One series deals with HBV (2.2.15 cells). Put plainly: Antiviral activity in 2.2.15 cells: reduction of viral product accumulation (qPCR of lysates, HBsAg or HBeAg ELISA). The format is cell-based, hepatitis B virus (HBV). Particulars: Hepatitis B virus, 120 h, day 5 post treatment, 50% reduction of viral product accumulation in lysates or supernatants vs no drug controls, readout (qPCR, HBsAg, HBeAg) not specified. An outline of the steps: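 HBV-producing 2.2.15 cells, 35,000/well, treated with 5-fold serial compound dilutions at 0.5% final DMSO for 5 days. Lysate HBV DNA by qPCR or supernatant HBsAg/HBeAg by ELISA; EC50 is 50% reduction versus no-drug control, binned A<0.1 μM, B 0.1-1 μM, C>1 μM.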
For orientation: Quantitative PCR measures a nucleic acid by following its amplification.

Series [1] in a line: Compound induced cellular toxicity in HepG2 cells (ATPlite 1 Step). Type of series: cell-based. Particulars: human, three days, 50% reduction of total ATP levels vs no drug controls. As to the method: At day 3, post seeding cells are treated with ATPlite 1 Step according to the manufacturer's instructions.
A general note: In ATP-based viability assays light output follows the ATP content of the culture.

Experimental findings from patent US11058678B2 (Enanta Pharmaceuticals, Inc., priority 2018, dated 2021) are described below.

Molecules are shown by their SMILES.

On to `COCCCOc1cc2c(cc1-c1ccc(F)cc1)-c1cc(=O)c(C(=O)O)cn1[C@H]1[C@@H]2COC1(C)C` [Example 61, (3aS,12bR)-10-(4-fluorophenyl)-11-(3-methoxypropoxy)-3,3-dimethyl-7-oxo-3,3a,7,12b-tetrahydro-1H-furo[3,4-c]pyrido[2,1-a]isoquinoline-6-carboxylic Acid], for which the EC50 (usually the concentration that produces a half-maximal response) with HBV (2.2.15 cells) was < 0.1 µM. The CC50 (as a rule, the concentration at which the toxic effect on the cells reaches its halfway point) at 3 days in series [1] was > 25 µM.

As to `CC(C)(C)[C@@H]1Cc2c(cc(-c3ccc(F)cc3)c3c2CCO3)-c2cc(=O)c(C(=O)O)cn21` [Example 62, (S)-5-(tert-butyl)-12-(4-fluorophenyl)-9-oxo-2,3,4,9-tetrahydro-5H-furo[3,2-f]pyrido[2,1-a]isoquinoline-8-carboxylic Acid], in the series with HBV (2.2.15 cells), the EC50 is < 0.1 µM. The half-maximal cytotoxic concentration (CC50) at 3 days in series [1] was < 10 µM.

Turning to `COCCCOc1cc2c(cc1-c1cnco1)-c1cc(=O)c(C(=O)O)cn1[C@H]1[C@@H]2CCC1(C)C` [Example 63, (3aS,12bR)-11-(3-methoxypropoxy)-3,3-dimethyl-10-(oxazol-5-yl)-7-oxo-1,2,3,3a,7,12b-hexahydrocyclopenta[c]pyrido[2,1-a]isoquinoline-6-carboxylic Acid], the EC50 in the series on HBV (2.2.15 cells) is < 0.1 µM. The same compound showed a CC50 at 3 days in series [1] of 10 to 25 µM.

For `CC(C)(C)[C@@H]1Cc2c(cc(-c3ccoc3)c3c2CCO3)-c2cc(=O)c(C(=O)O)cn21` [Example 64, (S)-5-(tert-butyl)-12-(furan-3-yl)-9-oxo-2,3,4,9-tetrahydro-5H-furo[3,2-f]pyrido[2,1-a]isoquinoline-8-carboxylic Acid], the half-maximal effective concentration (EC50) in the series on HBV (2.2.15 cells) is < 0.1 µM. Besides, the CC50 at 3 days in series [1] was < 10 µM.

With `CC(C)(C)[C@@H]1Cc2c(cc(-c3cccc(F)c3)c3c2CCO3)-c2cc(=O)c(C(=O)O)cn21` [Example 65, (S)-5-(tert-butyl)-12-(3-fluorophenyl)-9-oxo-2,3,4,9-tetrahydro-5H-furo[3,2-f]pyrido[2,1-a]isoquinoline-8-carboxylic Acid], in the series on HBV (2.2.15 cells), the EC50 was < 0.1 µM. For the same compound, the CC50 at 3 days in series [1] is < 10 µM.

Regarding `CC(C)(C)[C@@H]1Cc2c(cc(-c3ccccc3F)c3c2CCO3)-c2cc(=O)c(C(=O)O)cn21` [Example 66, (S)-5-(tert-butyl)-12-(2-fluorophenyl)-9-oxo-2,3,4,9-tetrahydro-5H-furo[3,2-f]pyrido[2,1-a]isoquinoline-8-carboxylic Acid], the EC50 in the series on HBV (2.2.15 cells) is < 0.1 µM. Besides, the CC50 at 3 days in series [1] is < 10 µM.

In the case of `CC(C)(C)[C@@H]1Cc2c(cc(-c3ccccc3)c3c2CCO3)-c2cc(=O)c(C(=O)O)cn21` [Example 67, (S)-5-(tert-butyl)-9-oxo-12-phenyl-2,3,4,9-tetrahydro-5H-furo[3,2-f]pyrido[2,1-a]isoquinoline-8-carboxylic Acid], the EC50 in the series on HBV (2.2.15 cells) is < 0.1 µM. For the same compound, the CC50 at 3 days in series [1] is < 10 µM.

Consider `CC(C)(C)[C@@H]1Cc2c(cc(-c3ccsc3)c3c2CCO3)-c2cc(=O)c(C(=O)O)cn21` [Example 71, (S)-5-(tert-butyl)-9-oxo-12-(thiophen-3-yl)-2,3,4,9-tetrahydro-5H-furo[3,2-f]pyrido[2,1-a]isoquinoline-8-carboxylic Acid], for which, in the series with HBV (2.2.15 cells), the EC50 was < 0.1 µM. Besides, in series [1], the CC50 at 3 days is < 10 µM.

Turning to `CC(C)(C)[C@@H]1Cc2c(cc(-c3ccc(F)c(F)c3)c3c2CCO3)-c2cc(=O)c(C(=O)O)cn21` [Example 77, (S)-5-(tert-butyl)-12-(3,4-difluorophenyl)-9-oxo-2,3,4,9-tetrahydro-5H-furo[3,2-f]pyrido[2,1-a]isoquinoline-8-carboxylic Acid], the EC50 with HBV (2.2.15 cells) was < 0.1 µM. In addition, in series [1], the CC50 at 3 days was < 10 µM.

For `COc1cccc(-c2cc3c(c4c2OCC4)C[C@@H](C(C)(C)C)n2cc(C(=O)O)c(=O)cc2-3)c1` [Example 79, (S)-5-(tert-butyl)-12-(3-methoxyphenyl)-9-oxo-2,3,4,9-tetrahydro-5H-furo[3,2-f]pyrido[2,1-a]isoquinoline-8-carboxylic Acid], the EC50 in the series with HBV (2.2.15 cells) was < 0.1 µM. The CC50 at 3 days in series [1] is < 10 µM.

Consider `CC(C)(C)[C@@H]1Cc2c(cc(-c3cccs3)c3c2CCO3)-c2cc(=O)c(C(=O)O)cn21` [Example 86, (S)-5-(tert-butyl)-9-oxo-12-(thiophen-2-yl)-2,3,4,9-tetrahydro-5H-furo[3,2-f]pyrido[2,1-a]isoquinoline-8-carboxylic Acid], for which the EC50 in the series on HBV (2.2.15 cells) was < 0.1 µM. In addition, the CC50 at 3 days in series [1] is < 10 µM.

Take `CC(C)[C@@H]1Cc2c(cc(-c3ccsc3)c3c2CCO3)-c2cc(=O)c(C(=O)O)cn21` [Example 100, (S)-5-isopropyl-9-oxo-12-(thiophen-3-yl)-2,3,4,9-tetrahydro-5H-furo[3,2-f]pyrido[2,1-a]isoquinoline-8-carboxylic Acid]: the EC50 in the series with HBV (2.2.15 cells) was < 0.1 µM. For the same compound, in series [1], the cytotoxic concentration (CC50) at 3 days was < 10 µM.

Consider `C[C@H]1Cc2c3c(cc(-c4ccoc4)c2O1)-c1cc(=O)c(C(=O)O)cn1[C@H](C(C)(C)C)C3` [Example 132, (2S,5S)-5-(tert-butyl)-12-(furan-3-yl)-2-methyl-9-oxo-2,3,4,9-tetrahydro-5H-furo[3,2-f]pyrido[2,1-a]isoquinoline-8-carboxylic Acid], for which, in the series with HBV (2.2.15 cells), the EC50 is < 0.1 µM. Moreover, the cytotoxic concentration (CC50) at 3 days in series [1] is < 10 µM.
